The results in this text go back to ChEMBL document CHEMBL1148908, “Biscoumarin derivatives from Edgeworthia gardneri that inhibit the lyase activity of DNA polymerase beta” (J Nat Prod, 2004).

pIC50: −log10 of the molar value. Calls of active or inactive are those of the source. The calls are words filed in the database; no cut-off is given here.

Test [1] concerns the target DNA polymerase beta (Rattus norvegicus) (UniProt P06766). Put plainly: Inhibition of rat DNA polymerase beta-mediated DNA polymerization up to 100 ug/mL after 1 hr.
The target of another test is DNA polymerase beta (Rattus norvegicus, UniProt P06766). Put plainly: Inhibition of lyase activity of rat DNA polymerase beta after 30 mins.
Test [2] deals with A549. Put plainly: Cytotoxicity against human A549 cells at 6 uM after 48 hrs in presence of 0.5 uM blenoxane. Type of test: functional.
For test [3], the system named is A549. Nature of the test: Cytotoxicity against human A549 cells at 6 uM after 48 hrs. The settings on record: A549, 48 h. Type of test: functional.
In test [4] the test system is A549. Put plainly: Cytotoxicity against human A549 cells at 0.5 uM after 48 hrs. It counts as functional, cell-based.

As for `COc1cc2cc(Oc3ccc4ccc(=O)oc4c3)c(=O)oc2cc1O` [DAPHNORETIN], the result in test [1] was inactive. The same molecule gave a negative logarithm of the IC50 (pIC50) against DNA polymerase beta of 3.91.
Turning to `O=c1ccc2ccc(Oc3cc4ccc(O)cc4oc3=O)cc2o1` [EDGEWORIN], the “inhibition (INH)” value with A549 [2] came out at 50.7%. Also, in test [1], the outcome was inactive. Besides, testing at 6 µM in the test on A549 [3] gave an inhibition of 1.6%.
Take `O=c1ccc2ccc(Oc3cc4cc(O)c(O)cc4oc3=O)cc2o1` [EDGEWORTHIN]: the result in test [1] was inactive. This molecule also had a pIC50 at DNA polymerase beta of 4.02.
Take BLEOMYCIN SULFATE: the inhibition with A549 [4] was 35.5%.

For orientation: pIC50 means the IC50 on a negative log10 scale, so that one unit is a factor of ten. A high value points to a small IC50. Usually inhibition stands for how much of the control response was suppressed. Read a high inhibition as strong suppression.
